The record followed here is patent US20230126310A1 (priority 2020, published 2023).

One data set relates to SARS-CoV-2. The settings on record: for % Inh. (% Inhibition of SARS-CoV-2): 10 µM.
A further data set has as its system CaCo-2 cells. The data set can be described thus: Compound cytotoxicity against CaCo-2 cells at 48 hours. It counts as cell-based, Human. The conditions noted are these: read-out: CC50: concentration of 50% cytotoxicity; Table 5, further results of Examples 1 and 2; mean ± spread. The protocol:
The cytotoxicity of the profiled compounds towards CaCo-2 cells at 48 hours was assessed. […] After 48 hours, cytotoxicity was evaluated using both digital phase contrast readout as described above and ATP determination (Cell titre-glo, Promega Corp).

Data set [1] deals with SARS-CoV-2 (BetaCov/Belgium/GHB-03021/2020). As to the kind of experiment: microbe, parasite or virus in culture. The format is cell-based.
The mark [2] stands for this setting: Table 5, further results of Examples 1 and 2.
Setting [3] is: read-out: IC50: concentration of 50% inhibition of virus infection, Table 5, further results of Examples 1 and 2, […].

What is called pIC50 is the IC50 on a negative log10 scale, so that one unit is a factor of ten. Higher therefore signals a small IC50.

Counter-ions that a name gives are not always drawn. Like-named read-outs stand apart in the source and are kept apart here.

For the molecule `FC(F)(F)Oc1ccc2nc(-c3ccc(OCCOCCOc4ccc(-c5nc6ccc(OC(F)(F)F)cc6[nH]5)nc4)cn3)[nH]c2c1` [AI-10-49], in the data set on SARS-CoV-2, the pIC50 is reported as 6.68 and the “% Inh. (% Inhibition of SARS-CoV-2)” value worked out at 103.8%. For the same molecule, the “pIC50: -log10 of IC50” value in the data set with SARS-CoV-2 (setting [2]) was determined as 6.72. Moreover, in the data set with SARS-CoV-2 (setting [3]), the IC50 is 0.19 ± 0.06 µM. The CC50 in the data set on CaCo-2 cells worked out at 6.58 ± 9.76 µM.

Turning to `C[CH2][Hg][S]c1ccccc1C(=O)[O-].[Na+]` [THIMEROSAL], in the data set on SARS-CoV-2, the IC50 stood at 1.77 µM, the pIC50 came to 5.75, the “pIC50: -log10 of IC50” value is 5.77 and the “% Inh. (% Inhibition of SARS-CoV-2)” value is given as 79.4%. Also, in the data set on SARS-CoV-2 (read-out: IC50: concentration of 50% inhibition of virus infection), the IC50 came to 1.69 ± 0.13 µM. Also, the CC50 in the data set on CaCo-2 cells came out at 13.5 ± 1.23 µM.

In the case of `Cc1cccc2c1CC[C@H](CN1CCC(c3c(Cl)cccc3Cl)CC1)C[C@@H]2O` [SB-612111], the “% Inh. (% Inhibition of SARS-CoV-2)” value in the data set on SARS-CoV-2 amounted to 146.6%. For the same molecule, the “pIC50: -log10 of IC50” value in the data set with SARS-CoV-2 (setting [2]) came out at 6.11. Further, the IC50 in the data set with SARS-CoV-2 (setting [3]) was found to be 0.77 ± 0.29 µM. Also, the CC50 with CaCo-2 cells turned out to be 3.67 ± 3.21 µM.

As to `CC(C)(C)c1cc(/C=C(\C#N)C(N)=S)cc(C(C)(C)C)c1O` [Tyrphostin AG 879 (AG 879), Tyrphostin AG 879], in the data set with SARS-CoV-2, the IC50 worked out at 0.2 µM, the pIC50 amounted to 6.70 and the “% Inh. (% Inhibition of SARS-CoV-2)” value came out at 104.2%. For the same molecule, the “pIC50: -log10 of IC50” value in the data set on SARS-CoV-2 (setting [2]) came to 6.70. Moreover, the IC50 in the data set with SARS-CoV-2 (setting [3]) stood at 0.2 ± 0.01 µM. Also, in the data set with CaCo-2 cells, the CC50 was determined as 1.36 ± 0.08 µM.

Regarding polidocanol, in the data set with SARS-CoV-2, the pIC50 is 6.68 and the “% Inh. (% Inhibition of SARS-CoV-2)” value is given as 85.8%. Besides, the “pIC50: -log10 of IC50” value in the data set with SARS-CoV-2 (setting [2]) is 6.66. In addition, the IC50 in the data set with SARS-CoV-2 (setting [3]) worked out at 0.22 ± 0.02 µM. Besides, in the data set with CaCo-2 cells, the CC50 was found to be 10.3 ± 1.62 µM.

As to `Nc1nccc(-c2c(-c3ccc(F)cc3)ncn2C2CCCCC2)n1` [PF-670462], the “% Inh. (% Inhibition of SARS-CoV-2)” value in the data set on SARS-CoV-2 was 111.6%. Further, in the data set with CaCo-2 cells, the CC50 is 8.24 ± 7.87 µM.

`OCCNC1CCCc2c1[nH]c1ccc(-c3ccccc3)cc21` (centres unmarked) [casin]: the “% Inh. (% Inhibition of SARS-CoV-2)” value in the data set on SARS-CoV-2 was determined as 71.2%. For the same molecule, in data set [1], the “Maximum confluence reached (%)” value stood at 50.81%.

Regarding `C=C(c1ccccc1OCc1cccc(Cl)c1)n1ccnc1` [Cloconazole HCl], the “% Inh. (% Inhibition of SARS-CoV-2)” value in the data set with SARS-CoV-2 is given as 92.8%. Also, the CC50 in the data set with CaCo-2 cells turned out to be 33 µM.

Take `NC(=NC1C2CC3CC(C2)CC1C3)Nc1ccc(I)cc1` (centres unmarked) [IPAG]: the “% Inh. (% Inhibition of SARS-CoV-2)” value in the data set with SARS-CoV-2 turned out to be 180.5%. Moreover, in the data set on SARS-CoV-2 (setting [2]), the “pIC50: -log10 of IC50” value is reported as 5.22. The IC50 in the data set on SARS-CoV-2 (setting [3]) was found to be 5.96 ± 0.57 µM. The “Maximum confluence reached (%)” value in data set [1] is recorded as 81.85%. Further, the CC50 in the data set with CaCo-2 cells was 11.5 ± 9.83 µM.

As to `Cn1cc(-c2ccc3c(c2)CCN3C(=O)Cc2cccc(C(F)(F)F)c2)c2c(N)ncnc21` [GSK2606414], in the data set on SARS-CoV-2, the IC50 was 0.2 µM, the pIC50 turned out to be 6.70 and the “% Inh. (% Inhibition of SARS-CoV-2)” value stood at 109.9%. The “pIC50: -log10 of IC50” value in the data set with SARS-CoV-2 (setting [2]) came to 6.60. In addition, in the data set with SARS-CoV-2 (setting [3]), the IC50 was 0.25 ± 0.06 µM. Further, the CC50 with CaCo-2 cells worked out at 70.4 ± 15.3 µM.

On to `CCCc1c(-c2ccc(O)cc2)nn(-c2ccc(O)cc2)c1-c1ccc(O)cc1` [PPT], for which, in the data set on SARS-CoV-2, the “% Inh. (% Inhibition of SARS-CoV-2)” value is on record as 71.1%. For the same molecule, the “Maximum confluence reached (%)” value in data set [1] worked out at 48.2%. Further, the IC50 in data set [1] (read-out: IC50) turned out to be 8.3 µM.

Consider `Cc1nn(C)c2nc(NNC(=O)Nc3cc(Cl)nc(Cl)c3)cc(C(C)C)c12` [JTE-013], for which, in the data set with SARS-CoV-2, the IC50 came out at 3.66 µM, the pIC50 amounted to 5.44 and the “% Inh. (% Inhibition of SARS-CoV-2)” value worked out at 105.9%. The “pIC50: -log10 of IC50” value in the data set with SARS-CoV-2 (setting [2]) stood at 5.22. Further, the IC50 in the data set with SARS-CoV-2 (setting [3]) is 5.97 ± 0.15 µM. In addition, the CC50 in the data set on CaCo-2 cells was found to be 16.4 ± 0.42 µM.

For `CC(C)(C)c1ccc(/C=C/C(=O)Nc2ccc3c(c2)OCCO3)cc1` [AMG-9810], the “% Inh. (% Inhibition of SARS-CoV-2)” value in the data set on SARS-CoV-2 was found to be 93.7%. Further, the CC50 in the data set with CaCo-2 cells is 14.2 ± 17.9 µM.

`CCOC(=O)c1ncc2[nH]c3ccc(OCc4ccccc4)cc3c2c1COC.Cl` [ZK-93423]: in the data set on SARS-CoV-2, the IC50 was 1.28 µM, the pIC50 stood at 5.89 and the “% Inh. (% Inhibition of SARS-CoV-2)” value is 75.1%. The “pIC50: -log10 of IC50” value with SARS-CoV-2 (setting [2]) was 5.87. The IC50 in the data set on SARS-CoV-2 (setting [3]) amounted to 1.34 ± 0.92 µM. Besides, the CC50 in the data set with CaCo-2 cells stood at 0.91 ± 0.13 µM.

For the molecule `CCS(=O)(=O)N(Cc1cccnc1)c1cccc(-c2ccc(C#N)cc2)c1` [CBiPES], the “% Inh. (% Inhibition of SARS-CoV-2)” value in the data set on SARS-CoV-2 was found to be 139.6%. For the same molecule, in the data set on SARS-CoV-2 (setting [2]), the “pIC50: -log10 of IC50” value was found to be 4.77. In addition, the IC50 in the data set on SARS-CoV-2 (setting [3]) amounted to 17.1 ± 1.17 µM. The CC50 in the data set on CaCo-2 cells stood at 13.4 ± 6.58 µM.

`C/C(=N\NC(=S)N1CCC1)c1ccccn1` [NSC319726]: in the data set with SARS-CoV-2, the pIC50 came to 8.00 and the “% Inh. (% Inhibition of SARS-CoV-2)” value worked out at 104.2%. Also, the “pIC50: -log10 of IC50” value with SARS-CoV-2 (setting [2]) is greater than 7.70. In addition, in the data set on SARS-CoV-2 (setting [3]), the IC50 was less than 0.02 µM. Besides, the CC50 in the data set on CaCo-2 cells is less than 0.02 µM.

As to `CCCCC1(C2CCCC2)Cc2cc(OCCCC(=O)O)c(Cl)c(Cl)c2C1=O` (centres unmarked) [DCPIB], in the data set on SARS-CoV-2, the “% Inh. (% Inhibition of SARS-CoV-2)” value stood at 80.3%. For the same molecule, the CC50 in the data set on CaCo-2 cells worked out at 24.6 ± 11.7 µM.
